Results from patent US11304949B2, “Treatment of hidradenitis suppurativa using JAK inhibitors” (Incyte Corporation, priority 2018, dated 2022).
pIC50: −log10 of the molar value.

Experiments:
[1] = system: Transformed human keratinocyte (HaCaT) cells stimulated with TNFα and IFNγ; assay: JAK inhibitors in TNFα/IFNγ stimulated keratinocytes, gene expression (QuantiGene Plex); settings: 24 hours, normalized to HPRT1, mean ± standard error
[2] = system: Transformed human keratinocyte (HaCaT) cells stimulated with TNFα and IFNγ; assay: JAK inhibitors in TNFα/IFNγ stimulated keratinocytes, inflammatory mediators in media (ProCarta Multiplex Immunoassay); settings: mean ± 1 standard error
[3] = biological target: human JAK1 (a.a. 837-1142) (Homo sapiens, UniProt P23458); assay: In vitro JAK kinase assay (HTRF), JAK1; type: biochemical; settings: 1 mM ATP
[4] = system: human JAK1 (a.a. 837-1142); assay: In vitro JAK kinase assay (HTRF), JAK1; type: biochemical; settings: IC50 ratio at 1 mM ATP
[5] = TNFα (25 ng/mL) and IFNγ (25 ng/mL), drug 25 nM
[6] = TNFα (25 ng/mL) and IFNγ (25 ng/mL), drug 50 nM
[7] = TNFα (25 ng/mL) and IFNγ (25 ng/mL), drug 100 nM
[8] = TNFα (25 ng/mL) and IFNγ (25 ng/mL), drug 200 nM
[9] = TNFα (25 ng/mL) and IFNγ (25 ng/mL) stimulation, drug 25 nM
[10] = TNFα (25 ng/mL) and IFNγ (25 ng/mL) stimulation, drug 50 nM
[11] = TNFα (25 ng/mL) and IFNγ (25 ng/mL) stimulation, drug 100 nM
[12] = TNFα (25 ng/mL) and IFNγ (25 ng/mL) stimulation, drug 200 nM

Which “IL-1α MFI” value [1, 5] does the source give for `C[C@@H](O)c1nc2cnc3ccsc3c2n1[C@H]1CC[C@H](CC#N)OC1` [Compound 5, ((2R,5S)-5-{2-[(1R)-1-hydroxyethyl]-1H-imidazo[4,5-d]thieno[3,2-b]pyridin-1-yl}tetrahydro-2H-pyran-2-yl)acetonitrile] here?
The value was 1269.66 ± 50.59.

What about the “IL-6 MFI” value [1, 5] of the same compound?
Its value is 132.28 ± 7.41.

What about the “JAK1 MFI” value [1, 5] of the same compound?
The value was 200.4 ± 9.84.

What about the “JAK2 MFI” value [1, 5] of the same compound?
Its value is 108.89 ± 3.25.

What about the “JAK3 MFI” value [1, 5] of the same compound?
The value was 0.97 ± 0.18.

And the “STAT1 MFI” value [1, 5]?
Its value is 3164.74 ± 242.35.

What about the “STAT3 MFI” value [1, 5] of the same compound?
Its value is 1572.76 ± 65.5.

And the “STAT4 MFI” value [1, 5]?
Its value is 5.4 ± 0.45.

What about the “STAT5A MFI” value [1, 5] of the same compound?
Its value is 20.12 ± 1.29.

And the “STAT6 MFI” value [1, 5]?
Its value is 1042.76 ± 29.23.

And the “TYK2 MFI” value [1, 5]?
The value was 283.93 ± 8.16.

What about the “IL-1α MFI” value [1, 6] of the same compound?
Its value is 1336.95 ± 50.97.

And the “IL-6 MFI” value [1, 6]?
The value was 137.61 ± 5.87.

And the “JAK1 MFI” value [1, 6]?
Its value is 210.52 ± 7.73.

What about the “JAK2 MFI” value [1, 6] of the same compound?
The value was 106.83 ± 5.94.

What about the “JAK3 MFI” value [1, 6] of the same compound?
The value was 0.99 ± 0.20.

And the “STAT1 MFI” value [1, 6]?
Its value is 3017.08 ± 167.96.

What about the “STAT3 MFI” value [1, 6] of the same compound?
The value was 1543.4 ± 58.65.

And the “STAT4 MFI” value [1, 6]?
The value was 6.1 ± 0.36.

What about the “STAT5A MFI” value [1, 6] of the same compound?
Its value is 22.69 ± 1.71.

What about the “STAT6 MFI” value [1, 6] of the same compound?
The value was 1046.46 ± 29.12.

What about the “TYK2 MFI” value [1, 6] of the same compound?
The value was 307.36 ± 14.87.

What about the “IL-1α MFI” value [1, 7] of the same compound?
Its value is 1244.96 ± 41.03.

And the “IL-6 MFI” value [1, 7]?
The value was 122.46 ± 5.35.

What about the “JAK1 MFI” value [1, 7] of the same compound?
Its value is 200.25 ± 8.15.

And the “JAK2 MFI” value [1, 7]?
The value was 102.64 ± 3.52.

And the “JAK3 MFI” value [1, 7]?
The value was 1.01 ± 0.17.

And the “STAT1 MFI” value [1, 7]?
The value was 2999.87 ± 197.86.

And the “STAT3 MFI” value [1, 7]?
Its value is 1549.17 ± 89.41.

What about the “STAT4 MFI” value [1, 7] of the same compound?
The value was 5.83 ± 0.34.

What about the “STAT5A MFI” value [1, 7] of the same compound?
Its value is 19.54 ± 1.34.

What about the “STAT6 MFI” value [1, 7] of the same compound?
The value was 985.1 ± 39.79.

And the “TYK2 MFI” value [1, 7]?
Its value is 280.63 ± 10.46.

And the “IL-1α MFI” value [1, 8]?
The value was 1163.14 ± 26.71.

What about the “IL-6 MFI” value [1, 8] of the same compound?
Its value is 119.49 ± 4.42.

And the “JAK1 MFI” value [1, 8]?
The value was 190.53 ± 7.68.

What about the “JAK2 MFI” value [1, 8] of the same compound?
The value was 92.21 ± 2.9.

And the “JAK3 MFI” value [1, 8]?
Its value is 0.86 ± 0.16.

And the “STAT1 MFI” value [1, 8]?
The value was 3161.66 ± 135.8.

And the “STAT3 MFI” value [1, 8]?
Its value is 1570.19 ± 51.51.

And the “STAT4 MFI” value [1, 8]?
Its value is 5.42 ± 0.52.

What about the “STAT5A MFI” value [1, 8] of the same compound?
Its value is 18.33 ± 1.83.

And the “STAT6 MFI” value [1, 8]?
The value was 1013.25 ± 17.15.

What about the “TYK2 MFI” value [1, 8] of the same compound?
Its value is 283.28 ± 10.88.

What about the “IL-1α MFI” value ([1]; no stimulation, drug 200 nM) of the same compound?
Its value is 92.67 ± 5.54.

What about the “IL-6 MFI” value ([1]; no stimulation, drug 200 nM) of the same compound?
Its value is 5.15 ± 0.31.

And the “JAK1 MFI” value ([1]; no stimulation, drug 200 nM)?
Its value is 177.97 ± 14.91.

What about the “JAK2 MFI” value ([1]; no stimulation, drug 200 nM) of the same compound?
The value was 25.67 ± 1.03.

What about the “JAK3 MFI” value ([1]; no stimulation, drug 200 nM) of the same compound?
Its value is 0.71 ± 0.15.

What about the “STAT1 MFI” value ([1]; no stimulation, drug 200 nM) of the same compound?
Its value is 554.64 ± 11.36.

And the “STAT3 MFI” value ([1]; no stimulation, drug 200 nM)?
The value was 750.90 ± 27.68.

What about the “STAT4 MFI” value ([1]; no stimulation, drug 200 nM) of the same compound?
Its value is 4.32 ± 0.53.

What about the “STAT5A MFI” value ([1]; no stimulation, drug 200 nM) of the same compound?
Its value is 1.99 ± 0.51.

And the “STAT6 MFI” value ([1]; no stimulation, drug 200 nM)?
The value was 777.03 ± 29.31.

And the “TYK2 MFI” value ([1]; no stimulation, drug 200 nM)?
Its value is 220.78 ± 12.01.

And the “IL-1α concentration in media” value [2, 9]?
The value was 6.8 ± 0.39 pg/mL.

And the “IL-6 concentration in media” value [2, 9]?
The value was 743.07 ± 36.3 pg/mL.

And the “IP-10/CXCL10 concentration in media” value [2, 9]?
Its value is 3903.67 ± 366.97 pg/mL.

And the “MIP1α concentration in media” value [2, 9]?
Its value is 102.06 ± 4.18 pg/mL.

What about the “RANTES concentration in media” value [2, 9] of the same compound?
Its value is 237.57 ± 17.46 pg/mL.

What about the “IL-1α concentration in media” value [2, 10] of the same compound?
The value was 6.76 ± 0.4 pg/mL.

And the “IL-6 concentration in media” value [2, 10]?
Its value is 698.04 ± 29.79 pg/mL.

And the “IP-10/CXCL10 concentration in media” value [2, 10]?
The value was 3998.62 ± 456.34 pg/mL.

What about the “MIP1α concentration in media” value [2, 10] of the same compound?
Its value is 96.35 ± 3.57 pg/mL.

What about the “RANTES concentration in media” value [2, 10] of the same compound?
The value was 237.55 ± 21.78 pg/mL.

What about the “IL-1α concentration in media” value [2, 11] of the same compound?
Its value is 6.92 ± 0.4 pg/mL.

And the “IL-6 concentration in media” value [2, 11]?
Its value is 703.99 ± 42.22 pg/mL.

And the “IP-10/CXCL10 concentration in media” value [2, 11]?
Its value is 4100.26 ± 502.48 pg/mL.

What about the “MIP1α concentration in media” value [2, 11] of the same compound?
The value was 96.22 ± 3.58 pg/mL.

What about the “RANTES concentration in media” value [2, 11] of the same compound?
Its value is 241.39 ± 22.79 pg/mL.

What about the “IL-1α concentration in media” value [2, 12] of the same compound?
Its value is 6.3 ± 0.35 pg/mL.

What about the “IL-6 concentration in media” value [2, 12] of the same compound?
The value was 646.2 ± 32.46 pg/mL.

What about the “IP-10/CXCL10 concentration in media” value [2, 12] of the same compound?
Its value is 4407.56 ± 645.63 pg/mL.

What about the “MIP1α concentration in media” value [2, 12] of the same compound?
The value was 88.49 ± 5.06 pg/mL.

And the “RANTES concentration in media” value [2, 12]?
The value was 238.51 ± 23.12 pg/mL.

And the “IL-1α concentration in media” value ([2]; no stimulation, drug 200 nM)?
Its value is 0.31 ± 0.04 pg/mL.

And the “IL-6 concentration in media” value ([2]; no stimulation, drug 200 nM)?
Its value is 28.84 ± 1.89 pg/mL.

And the “IP-10/CXCL10 concentration in media” value ([2]; no stimulation, drug 200 nM)?
The value was 20.39 ± 0.57 pg/mL.

What about the “MIP1α concentration in media” value ([2]; no stimulation, drug 200 nM) of the same compound?
Its value is 3.11 ± 0.28 pg/mL.

What about the “RANTES concentration in media” value ([2]; no stimulation, drug 200 nM) of the same compound?
Its value is 9.51 ± 0.56 pg/mL.

What about the pIC50 [3] of the same compound?
Its pIC50 is over 7.00.

And the JAK2/JAK1 [4]?
Its JAK2/JAK1 is over 10.
